{"source": "patent US7326825B2", "about": "“Methods of ungulate nuclear transfer” (Roslin Institute (Edinburgh), priority 1995, dated 2008)", "key": {"[1]": {"test_system": "enucleated oocytes fused to primary bovine fibroblasts", "test": "Pronuclear formation in enucleated oocytes fused to primary bovine fibroblasts and subsequently activated", "type": "cell-based", "set-up": "percentage of activated oocytes containing 1 PN / percentage of activated oocytes containing 2 PN / percentage of activated oocytes containing 3 PN / percentage of activated oocytes containing 4 PN / percentage of activated oocytes containing >4 PN: concentration or dose not given beside the values"}, "ovine oocytes": {"test_system": "ovine oocytes", "test": "Nuclei formation upon activation of reconstructed ovine oocytes matured in vivo", "type": "cell-based", "conditions": "donor cells introduced in the absence of activation", "method": "Similar observations to those in Example 1 have also been made in ovine oocytes which have been matured in vivo. Freshly ovulated oocytes can be retrieved by flushing from the oviducts of superstimulated ewes 24 hours after prostaglandin treatment. The use of calcium magnesium free PBS/1.0% FCS as a flushing medium prevents oocyte activation. Oocytes can be enucleated in calcium free medium and donor cells introduced as above in the absence of activation. No organised spindle is observed, multiple nuclei are formed upon subsequent activation and this may be suppressed by nocodazole treatment."}, "[2]": {"conditions": "nocodazole 1 hour prior to and 6 hours following activation, fused 24 hpm, activated 42 hpm, scored 12 hours post activation"}}}
{"smiles": "COC(=O)Nc1nc2ccc(C(=O)c3cccs3)cc2[nH]1", "note": "[nocodazole]", "values": [{"measurement": "formation of micronuclei", "setting": "[1]; incubation of activated oocytes for 5 hours, 1 hour prior to and following the activation stimulus", "value": "prevents the formation of micronuclei"}, {"measurement": "percentage of activated oocytes containing 1 PN", "setting": "[1]; [2]", "value": 100, "unit": "%"}, {"measurement": "percentage of activated oocytes containing 2 PN", "setting": "[1]; [2]", "value": 0, "unit": "%"}, {"measurement": "percentage of activated oocytes containing 3 PN", "setting": "[1]; [2]", "value": 0, "unit": "%"}, {"measurement": "percentage of activated oocytes containing 4 PN", "setting": "[1]; [2]", "value": 0, "unit": "%"}, {"measurement": "percentage of activated oocytes containing >4 PN", "setting": "[1]; [2]", "value": 0, "unit": "%"}, {"measurement": "formation of multiple nuclei upon subsequent activation", "setting": "ovine oocytes", "value": "suppressed"}]}
